Read-outs that look alike come from different tables or passages of the source.
What was measured:
[1] = system: hippocampal high affinity choline uptake; settings: mice; cited from earlier work
[2] = system: memory in mice; settings: versus normal vehicle-treated control mice; cited from earlier work
[3] = system: carrier that mediates choline transport ([3H] hemicholinium-3 binding in rat brain membranes); assay: [3H] hemicholinium-3 binding in rat brain membranes (cortex) after i.p. dosing of rats; parameters: species or system Male Sprague-Dawley rats; settings: for Bmax ± SEM of [3H] hemicholinium-3 binding / Kd: rat brain cortex; for Kd: Kd of the radioligand, read-out: Kd ± SEM of [3H] hemicholinium-3 binding
Description: Another measure of cholinergic activity is the binding of the radioligand [^3 H] hemicholinium-3, ([^3 H] HC-3) which labels the carrier that mediates choline transport. […] Therefore, the stimulation of [^3 H] HC-3 binding in vitro after treatment with drugs in vivo is also a marker for increased cholinergic activity, predictive of enhanced cognition in treated animals.
The pharmacological properties of these compounds as enhancers of memory and cognition and their relative potencies may be measured through their effect on neuro-transmitters in the brain. Since drugs that block GABA inhibition in the cholinergic neurons of the basal forebrain nuclei will stimulate cholinergic firing, thus stimulating memory, the capacity of the drugs to enhance cognition can be assessed by measuring the increase in cholinergic firing rate. The increase in cholinergic firing rate is measured indirectly by measuring choline uptake or [^3 H] hemicholinium-3 binding in brain cells taken from treated animals.
To test for [^3 H] hemicholinium-3 binding in brain cells from the brain cortex, drugs were dissolved in saline by sonication. Male Sprague-Dawley rats were dosed i.p. and sacrificed by decapitation 60 min after injection. The brains were removed and dissected, and tissue was homogenized in 20 volumes of ice-cold buffer and stored frozen until assayed. Binding was measured by incubating the tissue with varying concentrations of [^3 H]hemicholinium-3 in an isotonic Tris buffer (pH 7.4) for 60 min at room temperature. The incubation was terminated by rapid filtration through Whatman GF/B filters. After drying, the filters were placed in scintillation cocktail and radioactivity was determined using a Beckman scintillation counter. In two experiments, the values for the Kd and Bmax were determined by nonlinear curve-fitting and the average values for samples of 3 or more animals reported.

[4] = system: scopolamine-induced memory deficit in rats; assay: Working memory in the T-maze, rats treated with scopolamine; format: in vivo, Male Sprague-Dawley rats; settings: for Number of errors (12 = chance response), T-maze: 24 trials, mean ± SEM, n = 12
Method: (§1) The maze used has the shape of a T with alleys 16 cm wide and side walls 20 cm high, the main arm being 65 cm long and the two side arms 45 cm long. Male Sprague-Dawleyrats are maintained on a 23 hour food deprivation schedule and are tested each day (Monday-Friday), each trial in the maze consisting of two runs. The rat starts at the end of the main arm and runs to the choice point where it must turn either left or right. The first is a forced run where one arm of the T-maze has been blocked off at the choice point. The remaining arm has a bowl of sweetened condensed milk as reward. On the second run the rat has a free choice of arms and learns by experience that food reward is to be found down the arm not visited on the first run. Trials are run at 30-second intervals, and the arm choice on the forced run is varied at random between trials. Arm entry is defined by the rat's placing all four paws in the arm, and incorrect selection of the arm is scored as an error. Noncompleted trials, where the rat has not made a choice within 3 minutes, are included as errors.5-(3-Fluorophenyl)-2,4-dimethyl-3H-1,2,4-triazole-3-thione is administered one hour before the first trial of each session. Impairment of performance is achieved for testing the compound of this invention in two different ways.
In the trials summarized in Table 2, the amnestic muscarinic antagonist scopolamine is administered subcutaneously at a dose of 0.15 mg/kg 15-minutes before the first trial, and there is a delay of 5-10 seconds after the forced run before the second run of the trial. […] All values are expressed as the mean number of errors per block of twenty-four trials with groups of 12 animals±the standard error of the mean. For this test, the number of errors expected by random response, i.e., the selection of the correct arm 50% of the time, is 12.

[5] = system: time dependent memory deficit in rats; assay: Working memory in the T-maze, rats with 0- or 60-second delay; format: in vivo, Male Sprague-Dawley rats; settings: for Number of errors (5 = chance response), 0-Second Delay / Number of errors (5 = chance response), 60-Second Delay: ten trials, mean ± SEM, n = 12
Method: as §1, with “The activity of these compounds in enhancing memory can also be confirmed in experiments that study working memory in rats by evaluating the acquisition of alternation behavior in a T-maze. The maze” for “The maze”, “an error. […] Impairment of” for “an error. Noncompleted trials, where the rat has not made a choice within 3 minutes, are included as errors.5-(3-Fluorophenyl)-2,4-dimethyl-3H-1,2,4-triazole-3-thione is administered one hour before the first trial of each session. Impairment of”, “different ways. […] The table compares the number of incorrect responses by rats tested in trials wherein there is no delay after the forced run and trials wherein there is a 60-second delay. […] For this test, the number of errors expected by random response, i.e., the selection of the correct arm 50% of the time, is 5.” for “different ways.”

[6] = system: hippocampal slice; assay: Electrophysiological assay of long term potentiation of the hippocampal slice
Description: (§2) Experiments also compared 5-(3-fluorophenyl)-2,4-dimethyl-3H-1,2,4-triazole-3-thione, a compound of formula I, with a series of β-carbolines in an electrophysiological assay system involving long term potentiation of the hippocampal slice.

[7] = system: benzodiazepine receptor; assay: Inverse agonism at the benzodiazepine receptor, in the hippocampal slice tests; format: cell-based; settings: in these tests
Description: as §2

[8] = system: high affinity choline uptake (HACU); settings: cited from earlier work; for effect on HACU: acute administration i.p.; for effect on cortical or hippocampal HACU: after in vivo administration
[9] = 1 mg/kg i.p., n = 4, 60 min after injection
[10] = 2.5 mg/kg i.p., n = 4, 60 min after injection
[11] = 25 mg/kg i.p., n = 3, 60 min after injection
[12] = 25 mg/kg i.p., n = 3, vs saline (Bmax 11.9)
[13] = 5 mg/kg i.p., n = 7, 60 min after injection
[14] = higher concentrations / high doses

CC(=C(CCOC(=O)C(C)C)SSC(CCOC(=O)C(C)C)=C(C)N(C=O)Cc1cnc(C)nc1N)N(C=O)Cc1cnc(C)nc1N (stereo in doubt) [sulbutiamine]
hippocampal high affinity choline uptake [1]: increased | performance in operant conditioning memory task [2]: performance was enhanced

Cn1nc(-c2cccc(F)c2)n(C)c1=S [5-(3-Fluorophenyl)-2,4-dimethyl-3H-1,2,4-triazole-3-thione]
Bmax ± SEM of [3H] hemicholinium-3 binding [3, 9]: 20.3 ± 1.2 fmol/mg Protein | % Increase in Bmax ([3]; 1 mg/kg i.p., n = 4, vs saline (Bmax 9.7)): 109% | Bmax ± SEM of [3H] hemicholinium-3 binding [3, 10]: 15.2 ± 3.0 fmol/mg Protein | % Increase in Bmax ([3]; 2.5 mg/kg i.p., n = 4, vs saline (Bmax 9.7)): 57% | Kd [3, 9]: 3.8 ± 0.6 nM | Kd [3, 10]: 6.5 ± 1.8 nM | Number of errors (12 = chance response), T-maze ([4]; 1 mg/kg with scopolamine 0.15 mg/kg, * p < 0.05 vs saline): 5.0 ± 0.26 | reversal of scopolamine-induced memory deficit in the T-maze ([4]; 5 mg/kg): reverses the scopolamine-induced memory deficit | Number of errors (12 = chance response), T-maze ([4]; 5 mg/kg with scopolamine 0.15 mg/kg, + p < 0.05 vs scopolamine): 4.0 ± 0.8 | Number of errors (5 = chance response), 0-Second Delay ([5]; 1 mg/kg): 0.50 ± 0.26 | Number of errors (5 = chance response), 60-Second Delay ([5]; 1 mg/kg, * p < 0.05 vs 0 seconds delay): 4.42 ± 0.47 | Number of errors (5 = chance response), 0-Second Delay ([5]; 5 mg/kg): 0.67 ± 0.33 | Number of errors (5 = chance response), 60-Second Delay ([5]; 5 mg/kg, * p < 0.05 vs 0 seconds delay): 2.33 ± 0.50 | Number of errors (5 = chance response), 0-Second Delay ([5]; 10 mg/kg): 0.58 ± 0.19 | Number of errors (5 = chance response), 60-Second Delay ([5]; 10 mg/kg): 1.75 ± 0.43 | reversal of time dependent deficit in the T-maze ([5]; 60-second delay): effectively reverses the time dependent deficit | epileptiform activity in the hippocampal slice [6]: did not produce the epileptiform activity

Cn1nc(-c2cccc(C(F)(F)F)c2)n(C)c1=S [5-(3-Trifluoromethylphenyl)-2,4-dimethyl-3H-1,2,4-triazole-3-thione]
Bmax ± SEM of [3H] hemicholinium-3 binding [3, 11]: 16.0 ± 3.0 fmol/mg Protein | % Increase in Bmax [3, 12]: 35% | Kd [3, 11]: 1.5 ± 0.1 nM

Cn1c(-c2ccccc2)n[nH]c1=S [5-Phenyl-4-methyl-3H-1,2,4-triazole-3-thione]
Bmax ± SEM of [3H] hemicholinium-3 binding [3, 11]: 18.7 ± 3.2 fmol/mg Protein | % Increase in Bmax [3, 12]: 57% | Kd [3, 11]: 2.14 ± 0.7 nM

Cn1nc(-c2ccccc2)n(C)c1=S [5-phenyl-2,4-dimethyl-3H-1,2,4-triazole-3-thione]
Bmax ± SEM of [3H] hemicholinium-3 binding [3, 13]: 19.0 ± 3.4 fmol/mg Protein | % Increase in Bmax ([3]; 5 mg/kg i.p., n = 7, vs saline (Bmax 11.9)): 60% | Kd [3, 13]: 2.8 ± 0.5 nM

CNC(=O)c1cc2c(cn1)[nH]c1ccccc12 [N-methyl-β-carboline-3-carboxamide]
epileptiform activity in the hippocampal slice [6]: produced epileptiform activity | inverse agonist character [7]: partial inverse agonist

CN1[C@@H]2C[C@@H](OC(=O)[C@H](CO)c3ccccc3)C[C@H]1[C@@H]1O[C@@H]12 [Scopolamine, reference compound]
Number of errors (12 = chance response), T-maze ([4]; scopolamine 0.15 mg/kg s.c. alone, ** p < 0.01 vs saline): 6.9 ± 0.7

CN(C)CCC=C1c2ccccc2CCc2ccccc21 [amitriptyline]
effect on HACU [8]: no effect

CNCCCN1c2ccccc2CCc2ccccc21 [desipramine]
effect on HACU [8]: no effect

CCOC(=O)c1cc2c(cn1)[nH]c1ccccc12 [ethyl β-carboline-3-carboxylate]
epileptiform activity in the hippocampal slice [6, 14]: produced epileptiform activity | inverse agonist character [7]: full inverse agonists

CN(C)CCCN1c2ccccc2CCc2ccccc21 [imipramine]
effect on HACU [8]: no effect

CCc1c(C(=O)OC)ncc2[nH]c3cc(OC)c(OC)cc3c12 [methyl 6,7-dimethoxy-4-ethyl-β-carboline-3-carboxylate]
epileptiform activity in the hippocampal slice [6, 14]: produced epileptiform activity | inverse agonist character [7]: full inverse agonists

COC(=O)c1cc2c(cn1)[nH]c1ccccc12 [methyl β-carboline-3-carboxylate]
epileptiform activity in the hippocampal slice [6, 14]: produced epileptiform activity | inverse agonist character [7]: full inverse agonists

Cc1cc(-c2ccccc2)nnc1NCCN1CCOCC1 [minaprine]
effect on striatal, cortical and hippocampal HACU ([8]; 30 mg/kg acute dose): weak effect

NC(=O)CN1CC(O)CC1=O (stereo not drawn) [oxiracetam]
effect on cortical or hippocampal HACU [8]: stimulate cortical or hippocampal HACU

CC(C)(CO)[C@@H](O)C(=O)NCCCC(=O)O [pantoyl-GABA]
effect on cortical or hippocampal HACU [8]: stimulate cortical or hippocampal HACU

CC(C)N(CCNC(=O)CN1CCCC1=O)C(C)C [pramiracetam]
effect on cortical or hippocampal HACU [8]: stimulate cortical or hippocampal HACU

CCOc1ccccc1OCC1CNCCO1 (stereo not drawn) [viloxazine]
effect on HACU [8]: no effect
